From ChEMBL document CHEMBL4422639, “Novel 2, 8-bit derivatives of quinolines attenuate Pseudomonas aeruginosa virulence and biofilm formation” (Bioorg Med Chem Lett, 2019)
Active and inactive are the calls of the source. The calls are words filed in the database; no cut-off is given here.

Experiments:
Pseudomonas aeruginosa [1] = assay: Antibiofilm activity against Pseudomonas aeruginosa PAO1 at 10 uM after 18 hrs by crystal violet staining-based assay; format: functional, organism-based
Pseudomonas aeruginosa [2] = assay: Antibacterial activity against Pseudomonas aeruginosa PAO1 by standard optical density assay; format: functional, organism-based
[3] = target: 3-(3-hydroxydecanoyloxy)decanoate synthase (Pseudomonas aeruginosa (strain ATCC 15692 / PAO1 / 1C / PRS 101 / LMG12228)) (UniProt Q51559); assay: Inhibition of rhlA in Pseudomonas aeruginosa PAO1 assessed as decrease in rhamnolipid production at 10 uM after 16 hrs by standard optical density assay
[4] = system: Pseudomonas aeruginosa PAO1; assay: Inhibition of quorum sensing protein iqs in Pseudomonas aeruginosa PAO1 in phosphate limited medium assessed as reduction in biofilm formation at 10 uM after 18 hrs by crystal violet staining-based assay
[5] = target: T1, Anthranilate--CoA ligase (Pseudomonas aeruginosa (strain ATCC 15692 / DSM 22644 / CIP 104116 /JCM 14847 / LMG 12228 / 1C / PRS 101 / PAO1)) (UniProt Q9I4X3); assay: Inhibition of pqsA in Pseudomonas aeruginosa PAO1 containing […] translational reporter fusion at 20 uM after 16 hrs by LacZ reporter gene assay
T1 sequence (whole entry): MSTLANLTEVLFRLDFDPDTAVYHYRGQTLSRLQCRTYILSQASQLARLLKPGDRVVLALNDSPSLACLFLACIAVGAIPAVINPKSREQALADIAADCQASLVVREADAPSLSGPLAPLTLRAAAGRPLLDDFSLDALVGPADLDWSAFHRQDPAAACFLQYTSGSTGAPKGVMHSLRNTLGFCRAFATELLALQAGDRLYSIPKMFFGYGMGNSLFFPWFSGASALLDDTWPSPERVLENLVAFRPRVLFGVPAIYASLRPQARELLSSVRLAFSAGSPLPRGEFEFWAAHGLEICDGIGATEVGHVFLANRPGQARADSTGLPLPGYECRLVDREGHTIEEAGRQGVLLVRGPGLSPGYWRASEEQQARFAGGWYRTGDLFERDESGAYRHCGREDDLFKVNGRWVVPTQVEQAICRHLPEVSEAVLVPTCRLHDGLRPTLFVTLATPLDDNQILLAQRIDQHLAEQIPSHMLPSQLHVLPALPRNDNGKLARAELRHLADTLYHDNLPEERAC

[6] = target: Elastase (Pseudomonas aeruginosa (strain ATCC 15692 / PAO1 / 1C / PRS 101 / LMG12228)) (UniProt P14756); assay: Inhibition of lasB in Pseudomonas aeruginosa PAO1 containing lasB-lacZ translational reporter fusion at 20 uM after 16 hrs by LacZ reporter gene assay
[7] = target: 3-(3-hydroxydecanoyloxy)decanoate synthase (Pseudomonas aeruginosa (strain ATCC 15692 / PAO1 / 1C / PRS 101 / LMG12228)) (UniProt Q51559); assay: Inhibition of rhlA in Pseudomonas aeruginosa PAO1 containing […] translational reporter fusion at 20 uM after 16 hrs by LacZ reporter gene assay
[8] = system: Pseudomonas aeruginosa PAO1; assay: Inhibition of PQS in Pseudomonas aeruginosa PAO1 assessed as decrease in pyocyanin production at 10 uM after 16 hrs by standard optical density assay

Sequence of Elastase (Pseudomonas aeruginosa (strain ATCC 15692 / PAO1 / 1C / PRS 101 / LMG12228)) (P14756 198-498 limits assumed): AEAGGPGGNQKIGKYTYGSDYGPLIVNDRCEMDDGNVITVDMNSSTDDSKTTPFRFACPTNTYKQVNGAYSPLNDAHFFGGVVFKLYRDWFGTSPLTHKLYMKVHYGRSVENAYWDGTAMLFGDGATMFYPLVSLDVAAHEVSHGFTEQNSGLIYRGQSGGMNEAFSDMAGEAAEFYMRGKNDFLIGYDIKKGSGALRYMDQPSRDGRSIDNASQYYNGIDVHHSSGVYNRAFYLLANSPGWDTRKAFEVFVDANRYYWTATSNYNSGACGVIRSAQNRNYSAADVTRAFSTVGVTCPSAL

MIC (Pseudomonas aeruginosa [2]) [µM]	Structure (SMILES)	Activity (Pseudomonas aeruginosa [1])	further results
> 256	O=C(Oc1cccc2ccc(-c3cccc(C(F)(F)F)c3)nc12)c1ccco1	Active	
> 256	CC(=O)Oc1cccc2ccc(-c3ccc(C(F)(F)F)cc3)nc12	Active	
> 256	CCCCCC(=O)Oc1cccc2ccc(-c3ccc(C(F)(F)F)cc3)nc12	Active	
> 256	O=C(Oc1cccc2ccc(-c3ccc(C(F)(F)F)cc3)nc12)c1ccccc1	Active	
> 256	CCCCCCC(=O)Oc1cccc2ccc(-c3ccc(C(F)(F)F)cc3)nc12	Active	inhibition [3]: Active; inhibition [4]: inactive; inhibition [5]: inactive; inhibition [6]: inactive; inhibition [7]: Active; inhibition [8]: inactive
> 256	CCCC(=O)Oc1cccc2ccc(-c3ccc(C(F)(F)F)cc3)nc12	Active	
> 256	CCCCCCC(=O)Oc1cccc2ccc(-c3cc(C(F)(F)F)cc(C(F)(F)F)c3)nc12		
> 256	CCC(=O)Oc1cccc2ccc(-c3ccc(C(F)(F)F)cc3)nc12	Active	
> 256	CCCCCCC(=O)Oc1cccc2ccc(-c3ccc(F)cc3)nc12		
> 256	Cc1ccc(C(=O)Oc2cccc3ccc(-c4ccc(C(F)(F)F)cc4)nc23)cc1	Active	
> 256	COc1ccc(C(=O)Oc2cccc3ccc(-c4cccc(C(F)(F)F)c4)nc23)cc1	Active	inhibition [3]: Active; inhibition [4]: inactive; inhibition [5]: inactive; inhibition [6]: inactive; inhibition [7]: Active; inhibition [8]: inactive
> 256	Cc1ccc(C(=O)Oc2cccc3ccc(-c4cccc(C(F)(F)F)c4)nc23)cc1	Active	
> 256	O=C(Oc1cccc2ccc(-c3ccc(C(F)(F)F)cc3)nc12)c1ccc(Cl)cc1	Active	
> 256	O=C(Oc1cccc2ccc(-c3ccc(C(F)(F)F)cc3)nc12)c1ccco1	Active	
> 256	O=C(Oc1cccc2ccc(-c3cccc(C(F)(F)F)c3)nc12)c1ccc(Cl)cc1	Active	
> 256	COc1ccc(C(=O)Oc2cccc3ccc(-c4ccc(C(F)(F)F)cc4)nc23)cc1	Active	
> 256	CCCCCCC(=O)Oc1cccc2ccc(-c3cccc(C(F)(F)F)c3)nc12	Active	
> 256	O=C(Oc1cccc2ccc(-c3cccc(C(F)(F)F)c3)nc12)c1ccccc1	Active	
> 256	CCCCC(=O)Oc1cccc2ccc(-c3ccc(C(F)(F)F)cc3)nc12	Active	
> 256	CCCCCC(=O)Oc1cccc2ccc(-c3cccc(C(F)(F)F)c3)nc12	Active	
> 256	Oc1cccc2ccc(-c3ccc(C(F)(F)F)cc3)nc12	Active	
